Results: US10280156B2, “Heteroaromatic chalcone derivatives and their medical use” (Medizinische Universität Wien, priority 2014, dated 2019)

What was measured:
SU-DHL6 = assay: Viability test on SU-DHL6 cells; format: cell-based, human
Protocol: (§1) All experiments with hematological cell lines were done using phenol red-free RPMI 1640+L-glutamine (PAA Laboratories) supplemented with 1% PenStrep and 10% FBS gold, except experiments with OCI-Ly7 which were carried out in Gibco IMEM+GlutaMAX and 25 mM HEPES containing 20% FBS gold and 1% PenStrep. Cells were incubated in triplicates with increasing concentrations of the compounds for 48 h, changes in viability were determined using the cell proliferation and cytotoxicity assays EZ4U (Biomedica Group, Austria) and CellTiter-Blue Cell Viability Assay (Promega, Madison, Wis., USA) following instructions of the manufacturers. IC50 values were calculated from two independent experiments using GraphPad Prism 5 software.
Hematologic malignancies are highly heterogeneous in their biology and behavior. This and the fact that some patient groups are resistant to therapy underlines the urgent need for new therapeutic drugs. Compound 15 has therefore been tested on other cell lines representing a variety of hematologic neoplasms: two T-cell acute leukemia cell lines (CCRF, Jurkat), two myeloid leukemia cell lines (HL60, K562), and two additional B-cell lines (SU-DHL6, SU-DHL9). Viability was assessed as described in the methods section above. […] An exception was the chronic myeloid leukemia line K562. […]

HL60 = assay: Viability test on HL60 cells; format: cell-based, human
Protocol: JURKAT and CCRF-CEM (T-cell acute lymphoblastic leukemia), HL60 and K562 representing acute and chronic myeloid leukemia, respectively, the chronic lymphocytic leukemia cell line MEC-1, and the diffuse large B-cell lymphoma cell line U-2940 were cultured in Gibco RPMI 1640+GlutaMAX (Life Technologies, Carlsbad, Calif., USA) supplemented with 10% fetal bovine serum gold (FBS gold; PAA Laboratories, Pasching, Austria) and 1% PenStrep (100 U/ml penicillin and 100 μg/ml streptomycin; PAA Laboratories), and maintained at 37° C. in humidified atmosphere with 5% CO2. […]
as §1, with “software. […]” for “software.”

[1] = test system: primary cells from CLL patients; assay: Combination treatment of CLL primary cells with compound 15 and a further anticancer agent; format: cell-based, human
Protocol: Peripheral blood mononuclear cells (PBMCs) of CLL patients were incubated in increasing concentrations of one of the above-mentioned anticancer agents alone or increasing anticancer agent concentrations plus compound 15 in two different concentrations under standard conditions for 48 h before viability was determined (CellTiterBlue, Promega). Primary cells from 5 (ABT199) or 6 patients (CAL101, PCI32765) were included.

[2] = test system: PBMC of CLL patients cultured over a layer of mouse fibroblast cells (M2-10B4); assay: Viability of CLL cells in co-culture with M2-10B4 fibroblast cells; format: cell-based; conditions: Homo sapiens, M210B4, 48 h
Protocol: Primary cells were incubated at a density of 300,000 cells per well in 96-well plates in a total volume of 100 μl of Gibco RPMI 1640+L-glutamine (PAA Laboratories) supplemented with 20% FBS gold with increasing concentrations of compounds for 48 h. For co-culture experiments, 150,000 M2-10B4 mouse fibroblast cells were seeded into 12-well plates and allowed to form a confluent layer over night. Supernatant was replaced by 3 million primary cells in a total volume of 1 ml medium and incubated with increasing concentrations of compounds for 48 h. Viability was measured using CellTiter-Blue Cell Viability Assay (Promega, Madison, Wis., USA) following the instructions of the manufacturers. Experiments with primary cells were done in triplicates, IC50 values were calculated from the mean values of all samples used in the various experiments using GraphPad Prism 5 software.
As a last step, it has been sought to evaluate the cytotoxicity of compound 15 in primary cells and compare its activity to the impact of fludarabine. To this end, peripheral blood mononuclear cells (PBMC) of chronic lymphocytic leukemia (CLL) patients were used in two experimental settings. They were cultured in conventional suspension culture being exposed to increasing concentrations of drug. […]

OCI-Ly7 = assay: Viability test on OCI-Ly7 cells, 48 h; format: cell-based, human; conditions: 48 h incubation; nd = no significant cytotoxic activity up to 100 μM
Protocol: JURKAT and CCRF-CEM (T-cell acute lymphoblastic leukemia), HL60 and K562 representing acute and chronic myeloid leukemia, respectively, the chronic lymphocytic leukemia cell line MEC-1, and the diffuse large B-cell lymphoma cell line U-2940 were cultured in Gibco RPMI 1640+GlutaMAX (Life Technologies, Carlsbad, Calif., USA) supplemented with 10% fetal bovine serum gold (FBS gold; PAA Laboratories, Pasching, Austria) and 1% PenStrep (100 U/ml penicillin and 100 μg/ml streptomycin; PAA Laboratories), and maintained at 37° C. in humidified atmosphere with 5% CO2. The diffuse large B-cell lymphoma cell line OCI-LY7 was cultured in Gibco IMDM+GlutaMAX and 25 mM HEPES (Life Technologies) containing 20% FBS gold and 1% PenStrep.
as §1
Initially, compounds were biologically tested in six concentration steps (0.1 μM; 1 μM; 5 μM; 10 μM; 50 μM; and 100 μM) using the CellTiter-Blue Cell Viability Assay (Promega, Madison, Wis., USA) and an incubation time of 48 hours. […] IC50 values were calculated from at least two independent experiments with 3 replicates each. In order to evaluate the biologic activity of the new compounds, cytotoxicity was compared to that of fludarabine, an already approved drug for the treatment of various B-cell malignancies. […] Differences in IC50 values for the different cell types can be explained by the biological and genetic particularities of each subtype of B-cell Non-Hodgkin lymphoma (Stacchini A et al. Leukemia Res 1999, 23, 127-136; Sambade C et al. Int J Cancer 2006, 118, 555-563; Chang H et al. Leukemia lymphoma 1995, 19, 165-171; Tweeddale M E et al. Blood 1987, 69, 1307-1314; Tweeddale M et al. Blood 1989, 74, 572-578).

[3] = test system: PBMC of chronic lymphocytic leukemia (CLL) patients; assay: Viability of primary CLL cells in suspension culture; format: cell-based; conditions: Homo sapiens, CLL cell, 48 h
Source text: Hematological cell lines were acquired from the Leibniz Institute DSMZ-German Collection of Microorganisms and Cell Cultures (www.dsmz.de). Sixteen patients diagnosed with chronic lymphocytic leukemia at the Division of Hematology and Hemostaseology at the Vienna General Hospital and four healthy donors were included in the study. All participants signed informed consent according to the Declaration of Helsinki (Ethics Committee Nr: EK 1722/2012). Peripheral blood mononuclear cells (PBMC) were isolated using standardized Ficoll-Hypaque gradient centrifugation (Seromed, Berlin, Germany) and stored in liquid nitrogen until use. […]
Primary cells were incubated at a density of 300,000 cells per well in 96-well plates in a total volume of 100 μl of Gibco RPMI 1640+L-glutamine (PAA Laboratories) supplemented with 20% FBS gold with increasing concentrations of compounds for 48 h. […] Viability was measured using CellTiter-Blue Cell Viability Assay (Promega, Madison, Wis., USA) following the instructions of the manufacturers. Experiments with primary cells were done in triplicates, IC50 values were calculated from the mean values of all samples used in the various experiments using GraphPad Prism 5 software. […]

For `CCOc1ccccc1C(=O)/C=C/c1cc2ccccc2[nH]1` [Compound 15, 1-(2-Ethoxyphenyl)-3-(1H-indole-2-yl)-2-propen-1-one], the melting point was 124 to 126 °C, the IC50 (SU-DHL6; Homo sapiens, SU-DHL-6, B-cell lymphoma, nd = no significant cytotoxic activity up to 100 μM) was 60 nM and the “viability, % of control” value (SU-DHL6; SU-DHL6, at concentrations <1 μM) was “less than 30 % of control”. The “viability, % of control” value (HL60; HL60, at concentrations <1 μM) was “less than 30 % of control”, the IC50 (HL60; Homo sapiens, HL-60, myeloid leukemia, nd = no significant cytotoxic activity up to 100 μM) was 20 nM and the “effect of adding compound 15 to ABT199 on cytotoxicity” value ([1]; combination with ABT199, N=5, 48 h) was “synergistic effect”. The “effect of adding compound 15 to CAL101 on cytotoxicity” value ([1]; combination with CAL101 (idelalisib), N=6, 48 h) was “synergistic effect”, the “effect of adding compound 15 to PCI32765 on cytotoxicity” value ([1]; combination with PCI32765 (ibrutinib), N=6, 48 h) was “synergistic effect” and the IC50 [2] was 680 nM. It also gave an IC50 (OCI-Ly7) of 2900 nM and an IC50 [3] of 1180 nM.
